# Assays:
# [1] = In vitro release kinetics (dialysis method); type: physicochemical; settings: PBS media, pH 7.4
# Description: Solutions (1 mL) of free R848 in DMSO, R848/HA-Toco in water, R848-Toco in DMSO, and R848-Toco/HA-Toco in water, with a concentration of 1 mg/mL on R848 basis were dialyzed using SnakeSkin® dialysis tubing (MWCO […]) against 30 mL of phosphate buffered saline release medium (PBS, 10 mM sodium phosphate, 137 mM NaCl, pH 7.4) with 0.5% (w/v) polysorbate 80 at 37° C. At predetermined time points, 1 mL aliquots of release medium were sampled and replaced with an equal volume of fresh medium. The samples were kept frozen (−20° C.) until HPLC analysis.
# Results: The in vitro release profiles of R848 and R848-Toco from the HA-Toco were studied using a dialysis method. […] The release of parent R848 formulated with HA-Toco was tested in PBS media, with free R848 dissolved in DMSO as a control. Similar release kinetics were observed whether R848 was formulated with HA-Toco or without ([…]), and in both conditions nearly 100% of the agonist was released over 24 h (FIG. 4A).
# [2] = biological target: T1, hTLR7 (Homo sapiens, UniProt Q9NYK1); experiment: SEAP reporter assay for hTLR-7 activity (HEK-Blue hTLR7 cells); type: cell-based
# T1 construct: host or cells: HEK293 (HEK-Blue hTLR7)
# T1 sequence (Q9NYK1 27-1049): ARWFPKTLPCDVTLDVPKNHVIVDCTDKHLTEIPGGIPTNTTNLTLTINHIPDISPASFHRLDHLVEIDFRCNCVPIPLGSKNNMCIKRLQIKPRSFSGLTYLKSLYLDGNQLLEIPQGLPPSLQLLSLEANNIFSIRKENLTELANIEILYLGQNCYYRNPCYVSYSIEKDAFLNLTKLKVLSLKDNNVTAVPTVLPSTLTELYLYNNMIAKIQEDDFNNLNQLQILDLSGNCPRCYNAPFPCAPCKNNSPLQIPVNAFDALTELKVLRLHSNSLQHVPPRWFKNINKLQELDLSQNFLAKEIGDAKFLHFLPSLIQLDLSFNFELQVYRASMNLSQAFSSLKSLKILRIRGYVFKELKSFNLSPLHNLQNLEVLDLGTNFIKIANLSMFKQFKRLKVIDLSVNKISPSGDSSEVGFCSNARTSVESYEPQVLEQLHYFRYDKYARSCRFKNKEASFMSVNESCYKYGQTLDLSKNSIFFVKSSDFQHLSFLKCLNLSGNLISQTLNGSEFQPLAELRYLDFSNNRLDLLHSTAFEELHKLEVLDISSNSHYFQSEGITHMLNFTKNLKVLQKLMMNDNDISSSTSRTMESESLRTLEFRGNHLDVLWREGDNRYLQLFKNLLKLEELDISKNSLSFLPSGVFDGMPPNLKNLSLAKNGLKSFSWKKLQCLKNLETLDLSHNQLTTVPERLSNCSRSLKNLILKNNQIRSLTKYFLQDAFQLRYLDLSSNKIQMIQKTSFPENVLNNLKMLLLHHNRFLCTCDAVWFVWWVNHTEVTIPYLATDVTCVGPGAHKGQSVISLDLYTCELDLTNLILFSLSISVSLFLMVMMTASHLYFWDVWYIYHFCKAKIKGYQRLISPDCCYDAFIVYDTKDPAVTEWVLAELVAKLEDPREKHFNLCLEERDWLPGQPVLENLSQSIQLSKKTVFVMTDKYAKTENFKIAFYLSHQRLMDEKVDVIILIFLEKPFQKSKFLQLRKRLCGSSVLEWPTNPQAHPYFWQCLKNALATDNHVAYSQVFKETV
# Description: TLR activation induces NF-κB production and subsequent SEAP secretion, which is measured using HEK-Detection media (InvivoGen) containing a colorimetric substrate for SEAP (UV-Vis, 637 nm).
# The experiments followed manufacturer protocol as follows: SEAP levels were measured via absorbance at 637 nm using HEK-Blue Detection cell culture medium (InvivoGen), which contains a SEAP-specific colorimetric substrate. Compound stock solutions were first diluted in sterile DMSO at a concentration of 10 mM. Lower concentrations were prepared by serial dilution of the initial 10 mM stock samples into sterile DMSO and these solutions (22 μL) were subsequently diluted into sterile H2O (198 μL) using a BioTek Precision XS pipetting system. HEK-Blue hTLR7, HEK-Blue hTLR8, Null 1−k, and Null 1 cell suspensions in sterile HEK-Blue Detection medium were prepared at a density of 220,000 cells per mL. Clear bottom, 96-well tissue culture treated plates (Corning) were seeded with hTLR7 and Null 1−k or hTLR8 and Null 1 cell suspensions (180 μL/well), after which 20 μL of the various sample concentrations in 10% v/v DMSO/H2O were added (20 μL) in quadruplicate wells to yield the desired testing concentration in 1% v/v DMSO cell suspension. Plates were incubated at 37° C. and 5% CO2 in the dark. Absorbance measurements were taken at 637 nm at 12 hours, 4 replicates per concentration point, per cell line (hTLR7, hTLR8, Null 1−k, Null 1). Three independent measurements on different days were performed for each analog.
# Corresponding well absorbance values for each concentration tested were averaged with respect to days tested, and the average relative NF-κB induction (UV-Vis, 637 nm) of the null cell lines (Null 1-k or Null 1) were subtracted from the respective average TLR expressing cell line (hTLR7 or hTLR8) absorbance averages. […] The three independent, normalized averages for each analog were then pooled, and the data was fit using the Hill-Slope model (GraphPad Prism v7.0) using the non-linear fit from the [Agonist] vs. response—Variable Slope (four parameters) with a hill slope constrained to less than 3.
smiles,measurement,setting,value
"CCOCc1nc2c(N)nc3ccccc3c2n1CC(C)(C)O [Compound 2, resiquimod, reference compound]",agonist released over 24 h,[1],~100%
same,agonist for TLR7 receptor (in words),[2],agonists

# — patent publication US12295970B2, “Imidazoquinoline compounds and prodrugs thereof” (UNIVERSITY OF KANSAS, priority 2019, dated 2025)
